Columns and labels:
DOT1L = biological target: T1, DOT1L (Homo sapiens, UniProt Q8TEK3); assay: Methyltransferase selectivity panel (MT HotSpot radioisotope assay), DOT1L; format: biochemical; settings: 10 μM eltrombopag, DOT1L
T1 construct: purchased Reaction Biology (Malvern, PA, USA), contract assay
Method: (§1) The selectivity profile of eltrombopag was investigated by testing the level of inhibition in a methyltransferase panel. The inhibition of 7 […] methyltransferase was tested at Reaction Biology (Malvern, PA, USA) using a gold standard radioisotope-based MT assay (MT HotSpot^TM) with 10 μM of eltrombopag in duplicate.

G9a = biological target: T2, G9a (Homo sapiens, UniProt Q96KQ7); assay: Methyltransferase selectivity panel (MT HotSpot radioisotope assay), G9a; format: biochemical; settings: 10 μM eltrombopag
T2 construct: purchased Reaction Biology (Malvern, PA, USA), contract assay
T2 sequence (Q96KQ7 1-1210): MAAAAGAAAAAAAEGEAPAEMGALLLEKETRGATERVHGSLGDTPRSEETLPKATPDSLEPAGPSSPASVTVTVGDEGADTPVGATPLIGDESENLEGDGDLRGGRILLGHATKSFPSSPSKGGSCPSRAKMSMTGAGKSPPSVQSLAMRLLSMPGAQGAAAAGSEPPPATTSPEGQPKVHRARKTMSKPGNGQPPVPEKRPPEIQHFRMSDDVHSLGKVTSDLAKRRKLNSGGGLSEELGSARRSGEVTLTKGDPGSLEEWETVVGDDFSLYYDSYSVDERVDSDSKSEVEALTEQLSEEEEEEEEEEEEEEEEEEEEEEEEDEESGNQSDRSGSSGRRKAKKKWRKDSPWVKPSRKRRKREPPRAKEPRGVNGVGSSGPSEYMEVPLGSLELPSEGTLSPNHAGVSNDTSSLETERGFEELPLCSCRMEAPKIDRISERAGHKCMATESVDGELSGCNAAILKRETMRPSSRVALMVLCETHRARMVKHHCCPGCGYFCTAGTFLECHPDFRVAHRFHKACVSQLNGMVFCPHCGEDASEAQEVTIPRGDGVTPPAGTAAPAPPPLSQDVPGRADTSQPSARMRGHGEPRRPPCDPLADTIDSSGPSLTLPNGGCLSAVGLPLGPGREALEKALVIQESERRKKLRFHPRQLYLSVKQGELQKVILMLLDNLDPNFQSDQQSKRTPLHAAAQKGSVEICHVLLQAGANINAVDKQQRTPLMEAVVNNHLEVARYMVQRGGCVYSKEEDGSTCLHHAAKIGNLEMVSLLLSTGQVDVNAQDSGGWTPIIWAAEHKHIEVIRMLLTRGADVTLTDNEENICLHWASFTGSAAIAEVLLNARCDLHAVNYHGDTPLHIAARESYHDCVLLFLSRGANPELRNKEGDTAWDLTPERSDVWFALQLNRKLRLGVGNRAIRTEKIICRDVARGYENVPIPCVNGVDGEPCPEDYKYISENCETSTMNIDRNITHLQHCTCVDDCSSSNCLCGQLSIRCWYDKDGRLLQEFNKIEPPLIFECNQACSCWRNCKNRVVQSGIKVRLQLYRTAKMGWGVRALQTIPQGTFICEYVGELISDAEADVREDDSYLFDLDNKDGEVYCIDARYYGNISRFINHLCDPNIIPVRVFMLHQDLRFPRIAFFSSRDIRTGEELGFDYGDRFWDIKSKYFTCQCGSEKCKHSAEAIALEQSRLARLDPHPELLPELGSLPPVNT
Method: as §1

PRMT1 = biological target: T3, PRMT1 (Homo sapiens, UniProt Q99873); assay: Methyltransferase selectivity panel (MT HotSpot radioisotope assay), PRMT1; format: biochemical; settings: 10 μM eltrombopag
T3 construct: purchased Reaction Biology (Malvern, PA, USA), contract assay
Excerpt: The selectivity profile of eltrombopag was investigated by testing the level of inhibition in a methyltransferase panel.

SETD2 = biological target: T4, SETD2 (Homo sapiens, UniProt Q9BYW2); assay: Methyltransferase selectivity panel (MT HotSpot radioisotope assay), SETD2; format: biochemical; settings: 10 μM eltrombopag
T4 construct: purchased Reaction Biology (Malvern, PA, USA), contract assay
Method: as §1

METTL14 = biological target: T5, METTL14 (Homo sapiens, UniProt Q9HCE5); assay: Bioluminescence enzyme assay, single form of METTL14; format: biochemical; settings: 36 μM eltrombopag; 300 nM METTL14, 5 h; read-out: % inhibition, single subunit enzyme form of METTL14
T5 construct: 10x His (thrombin-cleavable); made in house; host or cells: insect cells, baculovirus (pVL1393)
T5 sequence (Q9HCE5 1-456): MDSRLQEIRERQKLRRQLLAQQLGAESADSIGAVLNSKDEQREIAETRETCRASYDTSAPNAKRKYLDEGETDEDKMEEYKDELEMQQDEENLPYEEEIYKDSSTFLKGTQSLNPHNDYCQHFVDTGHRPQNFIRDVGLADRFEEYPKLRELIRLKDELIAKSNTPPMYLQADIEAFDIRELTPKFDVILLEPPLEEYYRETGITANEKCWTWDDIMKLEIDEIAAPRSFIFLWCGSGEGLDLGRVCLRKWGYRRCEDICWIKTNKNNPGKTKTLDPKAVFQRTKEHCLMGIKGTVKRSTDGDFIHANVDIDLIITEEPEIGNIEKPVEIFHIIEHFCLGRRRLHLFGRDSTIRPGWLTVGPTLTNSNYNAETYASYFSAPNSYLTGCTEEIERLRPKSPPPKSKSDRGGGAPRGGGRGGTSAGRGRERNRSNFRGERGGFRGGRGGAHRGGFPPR
Method: (§2) An enzymatic bioluminescence assay was established to identify the METTL3-14 inhibitor through screening. […] METTL3-14 activity was assessed by measuring the luminescence using a Victor multilabel reader (PerkinElmer, Waltham, MA, USA). The IC50 values were calculated by a nonlinear regression analysis using OriginPro 9.1 software (OriginLab).
(§3) To confirm the mechanism of action of eltrombopag in the METTL3-14 complex, 30 nM METTL3-14 and serially diluted eltrombopag were reacted with various concentrations of SAM or RNA substrate and saturating concentrations of the other substrate (3 μM SAM or 2 μM RNA substrate) for 20 min. To evaluate the inhibitory activity in a single form of METTL3 and METTL14, 1 μM of METTL3 and 300 nM of METTL14 were incubated with 1 μM of SAM, 500 nM of RNA substrates, and serially diluted eltrombopag for 5 h. To measure the inhibitory activity in the truncated form of the METTL3-14 complex, 1 μM of the truncated METTL3-14 complex was reacted with 1 μM of SAM, 500 nM of RNA substrates, and serially diluted eltrombopag for 5 h.

[1] = biological target: T6, truncated METTL3-14 complex (Homo sapiens, UniProt Q86U44); assay: Bioluminescence enzyme assay, truncated form of METTL3-14 (methyltransferase domain); format: biochemical
T6 construct: MTase domain of human METTL3 (residues 369 to 580); METTL14 (residues 106 to 396); 10x His (thrombin-cleavable) (cleaved yes); made in house; host or cells: Trichoplusia ni (Hi5) cells co-infected with two baculoviruses
Method: as §2, §3

[2] = design: method as in PMID 30305280, PMID 30002802; settings: cited from earlier work

T6 sequence (Q86U44 369-580, one chain of several): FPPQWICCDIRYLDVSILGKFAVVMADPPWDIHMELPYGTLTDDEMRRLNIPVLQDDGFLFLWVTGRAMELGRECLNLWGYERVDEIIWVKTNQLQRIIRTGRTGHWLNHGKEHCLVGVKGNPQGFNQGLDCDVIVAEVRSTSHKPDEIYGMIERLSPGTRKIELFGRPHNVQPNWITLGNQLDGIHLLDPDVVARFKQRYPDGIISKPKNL
T4 sequence (Q9BYW2 whole entry): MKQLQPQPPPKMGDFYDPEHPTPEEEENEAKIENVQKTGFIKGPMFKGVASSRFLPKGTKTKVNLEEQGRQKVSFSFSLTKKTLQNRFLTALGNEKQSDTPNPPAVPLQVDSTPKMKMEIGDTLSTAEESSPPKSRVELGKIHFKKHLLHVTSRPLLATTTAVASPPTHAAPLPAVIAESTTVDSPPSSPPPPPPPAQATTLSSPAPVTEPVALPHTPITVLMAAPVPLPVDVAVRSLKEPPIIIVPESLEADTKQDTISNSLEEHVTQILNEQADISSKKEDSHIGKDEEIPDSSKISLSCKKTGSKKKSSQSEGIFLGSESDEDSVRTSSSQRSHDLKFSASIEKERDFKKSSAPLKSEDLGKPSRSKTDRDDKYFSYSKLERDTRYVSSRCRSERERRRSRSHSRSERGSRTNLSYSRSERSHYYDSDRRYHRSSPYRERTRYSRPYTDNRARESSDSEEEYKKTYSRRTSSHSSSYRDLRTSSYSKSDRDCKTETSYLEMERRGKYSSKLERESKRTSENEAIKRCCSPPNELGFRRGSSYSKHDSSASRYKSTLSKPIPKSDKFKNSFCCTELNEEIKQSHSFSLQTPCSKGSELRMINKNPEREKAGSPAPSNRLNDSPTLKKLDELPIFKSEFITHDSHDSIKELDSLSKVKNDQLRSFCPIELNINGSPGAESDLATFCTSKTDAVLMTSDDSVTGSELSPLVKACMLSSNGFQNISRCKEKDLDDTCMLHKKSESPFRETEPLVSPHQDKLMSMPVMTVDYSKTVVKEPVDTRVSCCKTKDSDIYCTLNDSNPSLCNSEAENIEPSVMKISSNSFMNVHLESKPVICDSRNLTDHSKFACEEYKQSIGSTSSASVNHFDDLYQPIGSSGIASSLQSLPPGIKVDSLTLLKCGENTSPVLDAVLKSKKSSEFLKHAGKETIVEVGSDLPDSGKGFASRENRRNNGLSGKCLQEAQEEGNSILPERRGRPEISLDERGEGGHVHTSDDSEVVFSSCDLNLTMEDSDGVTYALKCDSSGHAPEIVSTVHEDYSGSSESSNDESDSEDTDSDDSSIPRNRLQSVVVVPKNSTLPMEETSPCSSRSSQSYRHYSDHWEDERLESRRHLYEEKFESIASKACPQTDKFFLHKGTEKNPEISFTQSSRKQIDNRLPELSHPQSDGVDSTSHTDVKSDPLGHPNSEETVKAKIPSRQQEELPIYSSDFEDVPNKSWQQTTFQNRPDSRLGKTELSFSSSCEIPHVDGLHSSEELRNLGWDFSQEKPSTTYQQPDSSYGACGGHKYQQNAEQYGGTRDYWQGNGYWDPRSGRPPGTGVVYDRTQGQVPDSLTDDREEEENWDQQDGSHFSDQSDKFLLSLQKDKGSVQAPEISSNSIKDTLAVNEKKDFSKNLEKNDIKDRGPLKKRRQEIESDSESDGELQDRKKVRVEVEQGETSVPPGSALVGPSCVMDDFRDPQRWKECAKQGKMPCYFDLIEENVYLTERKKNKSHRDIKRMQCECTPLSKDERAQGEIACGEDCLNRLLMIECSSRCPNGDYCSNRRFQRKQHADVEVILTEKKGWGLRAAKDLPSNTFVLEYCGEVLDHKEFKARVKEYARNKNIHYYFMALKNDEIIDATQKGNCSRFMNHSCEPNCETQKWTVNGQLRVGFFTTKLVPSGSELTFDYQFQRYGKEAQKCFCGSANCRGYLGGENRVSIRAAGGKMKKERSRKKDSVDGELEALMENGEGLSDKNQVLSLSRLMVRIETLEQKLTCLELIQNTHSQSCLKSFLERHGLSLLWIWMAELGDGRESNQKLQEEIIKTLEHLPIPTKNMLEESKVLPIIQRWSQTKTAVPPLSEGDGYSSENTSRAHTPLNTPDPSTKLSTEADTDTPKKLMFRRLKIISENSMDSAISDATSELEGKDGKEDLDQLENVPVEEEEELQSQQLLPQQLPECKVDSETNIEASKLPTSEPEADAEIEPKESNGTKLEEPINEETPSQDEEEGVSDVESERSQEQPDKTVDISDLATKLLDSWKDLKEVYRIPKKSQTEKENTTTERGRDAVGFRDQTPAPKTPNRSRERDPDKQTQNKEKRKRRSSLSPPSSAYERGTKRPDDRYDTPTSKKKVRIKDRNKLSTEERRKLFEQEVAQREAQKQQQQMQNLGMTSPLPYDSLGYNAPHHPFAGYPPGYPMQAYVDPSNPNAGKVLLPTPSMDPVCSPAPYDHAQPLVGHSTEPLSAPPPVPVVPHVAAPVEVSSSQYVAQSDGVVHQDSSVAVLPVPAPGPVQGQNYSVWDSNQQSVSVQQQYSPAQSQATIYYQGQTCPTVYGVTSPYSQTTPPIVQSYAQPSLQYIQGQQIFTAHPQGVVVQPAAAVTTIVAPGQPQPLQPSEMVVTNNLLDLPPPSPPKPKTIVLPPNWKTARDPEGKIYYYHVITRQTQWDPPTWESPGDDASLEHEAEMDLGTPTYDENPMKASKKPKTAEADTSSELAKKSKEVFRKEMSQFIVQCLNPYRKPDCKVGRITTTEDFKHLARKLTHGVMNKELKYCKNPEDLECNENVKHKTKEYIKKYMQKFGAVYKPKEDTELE
T1 sequence (Q8TEK3 whole entry): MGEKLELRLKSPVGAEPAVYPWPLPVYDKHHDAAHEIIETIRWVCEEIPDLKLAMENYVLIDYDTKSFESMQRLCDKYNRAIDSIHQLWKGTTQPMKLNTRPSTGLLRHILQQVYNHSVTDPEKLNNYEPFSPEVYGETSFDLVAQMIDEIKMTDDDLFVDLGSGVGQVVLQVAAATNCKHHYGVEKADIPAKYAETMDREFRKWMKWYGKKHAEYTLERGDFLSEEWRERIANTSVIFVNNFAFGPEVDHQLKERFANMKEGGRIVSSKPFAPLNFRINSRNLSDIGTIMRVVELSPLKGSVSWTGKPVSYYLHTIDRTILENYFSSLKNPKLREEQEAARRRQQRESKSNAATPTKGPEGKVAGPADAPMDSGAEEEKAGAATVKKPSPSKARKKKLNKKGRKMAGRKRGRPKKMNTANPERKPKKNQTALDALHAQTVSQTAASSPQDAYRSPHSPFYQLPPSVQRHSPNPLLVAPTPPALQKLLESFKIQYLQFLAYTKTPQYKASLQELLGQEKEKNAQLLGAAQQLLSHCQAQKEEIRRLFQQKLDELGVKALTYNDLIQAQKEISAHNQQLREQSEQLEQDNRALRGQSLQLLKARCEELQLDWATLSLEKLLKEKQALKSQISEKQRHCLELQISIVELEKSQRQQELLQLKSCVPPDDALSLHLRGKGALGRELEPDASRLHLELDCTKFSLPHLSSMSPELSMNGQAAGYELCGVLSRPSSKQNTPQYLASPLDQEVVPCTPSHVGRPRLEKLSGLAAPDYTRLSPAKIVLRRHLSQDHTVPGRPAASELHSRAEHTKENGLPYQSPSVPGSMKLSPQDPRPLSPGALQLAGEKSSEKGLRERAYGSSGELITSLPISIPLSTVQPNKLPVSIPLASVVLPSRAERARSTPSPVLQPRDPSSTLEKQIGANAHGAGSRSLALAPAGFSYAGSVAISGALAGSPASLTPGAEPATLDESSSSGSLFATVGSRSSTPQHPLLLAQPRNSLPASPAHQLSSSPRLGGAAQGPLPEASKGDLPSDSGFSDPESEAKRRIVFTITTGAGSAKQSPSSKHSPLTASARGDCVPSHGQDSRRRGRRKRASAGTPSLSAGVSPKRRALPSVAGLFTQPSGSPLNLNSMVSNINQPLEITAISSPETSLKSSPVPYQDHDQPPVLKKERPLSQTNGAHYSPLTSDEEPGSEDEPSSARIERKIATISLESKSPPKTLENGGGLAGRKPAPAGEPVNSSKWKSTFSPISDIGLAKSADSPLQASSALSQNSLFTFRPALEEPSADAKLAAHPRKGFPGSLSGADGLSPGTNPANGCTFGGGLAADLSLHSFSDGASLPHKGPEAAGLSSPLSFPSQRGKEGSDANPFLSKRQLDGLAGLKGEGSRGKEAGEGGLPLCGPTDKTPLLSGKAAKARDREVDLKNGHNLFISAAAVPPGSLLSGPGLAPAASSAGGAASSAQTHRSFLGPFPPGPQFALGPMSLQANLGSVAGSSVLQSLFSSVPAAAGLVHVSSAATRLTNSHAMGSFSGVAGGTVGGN
T3 sequence (Q99873 whole entry): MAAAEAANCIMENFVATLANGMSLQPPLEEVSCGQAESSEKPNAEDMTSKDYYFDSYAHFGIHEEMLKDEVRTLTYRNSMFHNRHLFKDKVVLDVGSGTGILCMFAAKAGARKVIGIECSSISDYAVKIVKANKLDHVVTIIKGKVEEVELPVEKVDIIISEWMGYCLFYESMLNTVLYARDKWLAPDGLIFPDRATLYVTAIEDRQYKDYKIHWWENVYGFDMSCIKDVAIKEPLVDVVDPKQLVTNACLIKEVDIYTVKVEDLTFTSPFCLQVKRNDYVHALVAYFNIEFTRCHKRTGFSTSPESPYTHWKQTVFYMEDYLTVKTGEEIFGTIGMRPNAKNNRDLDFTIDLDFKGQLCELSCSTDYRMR

CC1=NN(c2ccc(C)c(C)c2)C(=O)/C1=N\Nc1cccc(-c2cccc(C(=O)O)c2)c1O [Eltrombopag]
remaining activity at 10 µM (DOT1L): 90 ± 2.8% | remaining activity at 10 µM (G9a): 99 ± 3.3% | remaining activity at 10 µM (PRMT1): 96.1 ± 3.9% | remaining activity at 10 µM (SETD2): 97.3 ± 4.1% | inhibition at 36 µM (METTL14): 59.3% | fold change of IC50, truncated versus full length METTL3-14 [1]: 3.5 fold | IC50 ([1]; 1 μM truncated complex, 1 μM SAM, 500 nM RNA, 5 h): 12 µM | safety in clinical studies, combination with azacitidine ([2]; combination with azacitidine compared with azacitidine alone): increased progression to acute myeloid leukemia | safety in clinical studies, monotherapy ([2]; monotherapy): didn’t show any safety concerns

— article PMC9032718, “Eltrombopag as an Allosteric Inhibitor of the METTL3-14 Complex Affecting the m^6A Methylation of RNA in Acute Myeloid Leukemia Cells” (Pharmaceuticals, 2022)
